The source of these data is publication PMC7346179, “Fe Porphyrin-Based SOD Mimic and Redox-Active Compound, (OH)FeTnHex-2-PyP^4+, in a Rodent Ischemic Stroke (MCAO) Model: Efficacy and Pharmacokinetics as Compared to Its Mn Analogue, (H2O)MnTnHex-2-PyP^5+” (Antioxidants, 2020).

Where “and” joins values, the source holds several entries; their conditions need not be identical. Equal entries are not always repeated.

Series [1] deals with rat middle cerebral artery occlusion (MCAO) stroke model. As to conditions: cited from earlier work.
For series [2] the following is noted: in vivo; cited from earlier work.
The conditions of series [3]: cited from earlier work.
The conditions of series [4]: mouse, in vivo; cited from earlier work.
Series [5] has as its system rat MCAO stroke model. Put plainly: 7-day rat MCAO efficacy study. In kind it is in vivo, rats. As to conditions: 0.225 mg/kg twice per day 7 days. The method, then:
The 7-day rat MCAO study was done as described in [9]. The 250–275 g Wistar rats were used as another species is a requirement for preclinical stroke research. The duration of the right MCAO was 90 min. […] The first dose was given IV slowly via the […] at 5 min after ischemia/reperfusion. The following doses were given SC. At day 7 post-injury, a person blinded to the treatment groups assessed the neurological deficit and then brains were harvested for infarct volume measurements.

A short description of series [6]: 2-h PK study in rats that underwent MCAO. It is filed as in vivo. Particulars: rats after 90-min MCAO, 0.225 mg/kg IV + 0.225 mg/kg SC, 2 h after reperfusion. As to the method:
Samples were prepared as described in [10] with modifications to accommodate the small tissue sizes and enhance the detection sensitivity. Quantitative liquid chromatography electrospray-ionization tandem mass spectrometry (LCMS/MS) analysis was performed on a Shimadzu 20A series HPLC (LC)-Applied Biosystems/MDS Sciex API 3200 QTrap or API 4000 QTrap tandem-mass spectrometer (MS/MS) as described earlier. The use of heptafluorobutyric acid (HFBA) mobile phase modifier as an ion-pairing agent increases the overall lipophilicity and volatility, which increases the retention and ionization efficiency of the analytes, affording an abundance of HFBA-associated ions. […] (OH)FeTnBuOE-2-PyP^4+ was prepared as described for other Fe(III) N-alkylpyridylporphyrins and analogous (H2O)MnTnBuOE-2-PyP^5+ [13, 16]. The solvents employed were: A = 95:5 H2O:MeCN (0.1% HFBA); B = MeCN (0.1% HFBA). […] With the chosen solvent system, all four atropoisomers collapsed into a single peak, enhancing the sensitivity of the method to as low as 0.5 nM (nanomoles per L of tissue homogenate). Analyses were performed using a Phenomenex Luna C18 guard cartridge (ID × L, 2 × 4 mm) only. […] Their structures are also shown. […] The response was calculated as the ratio between the standard peak area and the internal standard peak area. Another possible cause for the failure of therapeutics in stroke may be their slow accumulation in the brain, i.e., not being there in time to prevent the burst of reactive species and rapid activation of transcription factors, which perpetuate oxidative stress. We therefore conducted short-term 2-h PK to evaluate how fast post-MCAO our drug gets into the brain. Three rats per compound were subjected to 90 min of transient right MCAO as reported. The first dose of 0.225 mg/kg was given IV via the […] at 5 min after ischemia/reperfusion. The second dose of 0.225 mg/kg was given SC at 30 min after reperfusion. Blood was collected at 2 h and plasma harvested. Rats were perfused with heparin saline (2000 IU/500 mL) until no reddish fluid came out from the right atrium. Then, the liver, and left and right brain were collected and placed on dry ice and stored at -20 °C. Plasma, liver, and brain were analyzed by LCMS/MS.

Series [7] has as its system mice. As to conditions: mice, 5 mg/kg IP injection; cited from earlier work.
Series [8] is described as follows: 7-day PK study in healthy rats. It is filed as in vivo. Particulars: healthy rats. As to the method:
Samples were prepared as described in [10] with modifications to accommodate the small tissue sizes and enhance the detection sensitivity. Quantitative liquid chromatography electrospray-ionization tandem mass spectrometry (LCMS/MS) analysis was performed on a Shimadzu 20A series HPLC (LC)-Applied Biosystems/MDS Sciex API 3200 QTrap or API 4000 QTrap tandem-mass spectrometer (MS/MS) as described earlier. The use of heptafluorobutyric acid (HFBA) mobile phase modifier as an ion-pairing agent increases the overall lipophilicity and volatility, which increases the retention and ionization efficiency of the analytes, affording an abundance of HFBA-associated ions. […] (OH)FeTnBuOE-2-PyP^4+ was prepared as described for other Fe(III) N-alkylpyridylporphyrins and analogous (H2O)MnTnBuOE-2-PyP^5+ [13, 16]. The solvents employed were: A = 95:5 H2O:MeCN (0.1% HFBA); B = MeCN (0.1% HFBA). […] With the chosen solvent system, all four atropoisomers collapsed into a single peak, enhancing the sensitivity of the method to as low as 0.5 nM (nanomoles per L of tissue homogenate). Analyses were performed using a Phenomenex Luna C18 guard cartridge (ID × L, 2 × 4 mm) only. […] Their structures are also shown. […] The response was calculated as the ratio between the standard peak area and the internal standard peak area. We conducted a 7-day rat PK study under conditions identical to those that afforded the therapeutic efficacy of MnTnHex-2-PyP^5+ in an earlier study. […] Afterwards, blood/plasma samples were collected before injection and at 2 h after 24 h-injections (every second injection). Liver and brains were taken for analysis 12 h after the last injection. Three rats were used per compound. After the single (first) SC injection, we obtained a prototypical PK profile observed in the case of all Mn(III) ortho […] In contrast, although similarly absorbed after SC injection, the […] Our understanding is that the “elimination” process is actually a fast distribution/retention into/by the liver, kidney, and spleen, a multi-compartmental process responsible for early decay of the plasma concentration, observed for all Mn porphyrin analogs investigated.

Series [9] relates to mice. Particulars: mouse, in vivo, ip, 10 mg/kg; cited from earlier work.
[10] abbreviates: SC 0.225 mg/kg BID 7 days, 12 h after last injection.
[11] abbreviates: SC 0.225 mg/kg BID 7 days, WinNonlin simulation.

With `CCCCCC[n+]1ccccc1-c1c2nc(c(-c3cccc[n+]3CCCCCC)c3ccc([n-]3)c(-c3cccc[n+]3CCCCCC)c3nc(c(-c4cccc[n+]4CCCCCC)c4ccc1[n-]4)C=C3)C=C2.[Mn+3]` [MnHex, Mn(III) meso-tetrakis(N-n-hexylpyridinium-2-yl)porphyrin], the “infarct size in earlier 7-day MCAO study” value in [1] is reported as “significantly reduced the infarct size”. For the same compound, the “neurologic outcome, infarct size and inflammation” value in series [1] (rat MCAO stroke model and subarachnoid hemorrhage) was “improved the neurologic outcome and decreased infarct size and inflammation”. In addition, in series [1] (rat, in vivo), the “brain level in earlier 7-day MCAO study” value is recorded as ~ 30 nM. Besides, in series [2], the “blood–brain barrier crossing” value is reported as “crosses the BBB”. Further, the “log kcat(O2^•−), log of rate constant for catalysis of O2^•− dismutation” value in series [3] is 7.48. Besides, the “accumulation in mitochondria relative to cytosol” value in series [4] is given as 3.6 fold. In addition, in series [5], the “p, cortex infarct volume vs vehicle” value was found to be 0.046; the “p, neuroscore vs vehicle” value is given as 0.016; the “p, subcortex infarct volume vs vehicle” value is given as 0.049; the “p, total infarct volume vs vehicle” value worked out at 0.029. The “neurological deficit (neuroscore and infarct volume)” value in series [5] (first dose IV, then SC) was “significantly improved”. In addition, the “level in injured (right) brain hemisphere” value in series [6] is ~ 35 nM. The “toxicity / death of mice” value in series [7] is recorded as “mice died”. Moreover, the “brain level at end of 7-day treatment” value in series [8] (SC 0.225 mg/kg BID 7 days) is 25 nM. Also, in series [8] (setting [10]), the “brain concentration at end of 7-day treatment” value is 25 nM and the “end-of-treatment 7-day liver tissue level” value turned out to be 21 µM. Further, in [8] (setting [11]), the “average plasma concentration (Caver)” value is 76 nM and the “plasma AUC” value is 11.5 µM·h. The Cmax in series [8] (SC 0.225 mg/kg BID 7 days, WinNonlin simulation, read-out: Cmax at steady state, plasma) is 220 nM. The “elimination from plasma after single (first) SC injection” value in [8] (SC 0.225 mg/kg, first 12 h) is reported as “eliminated from plasma within 12 h”. In addition, the plasma half-life in series [8] (SC 0.225 mg/kg, estimated from simulation, 0.225 mg/kg) is 1.4 h and ~ 1.4 h. The blood pressure drop result in series [9] is recorded as “does cause a blood pressure drop”.
